#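 The compound was tested at five concentrations on cells cultured in 96-well plates, with a 48-hour exposure period. GI50 marks 50% less growth. The concentration for full growth arrest is given as TGI.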
# Experiments:
# Experiment in all cases: inhibition of tumour cell growth, NCI panel, 48 h
# RXF 393 renal = test system: RXF 393 renal
# OVCAR-4 ovarian = test system: OVCAR-4 ovarian
# HCT-116 colon = test system: HCT-116 colon
# HCT-15 colon = test system: HCT-15 colon
# NCI-H226 lung = test system: NCI-H226 lung
# NCI-H522 lung = test system: NCI-H522 lung
# ACHN renal = test system: ACHN renal
# SF-268 CNS = test system: SF-268 CNS
# RPMI-8226 leukemia = test system: RPMI-8226 leukemia
# K-562 leukemia = test system: K-562 leukemia
Compound,TGI (RXF 393 renal) [µM],TGI (OVCAR-4 ovarian) [µM],TGI (HCT-116 colon) [µM],TGI (HCT-15 colon) [µM],TGI (NCI-H226 lung) [µM],TGI (NCI-H522 lung) [µM],TGI (ACHN renal) [µM],TGI (SF-268 CNS) [µM],TGI (RPMI-8226 leukemia) [µM],GI50 (RXF 393 renal) [µM],GI50 (OVCAR-4 ovarian) [µM],GI50 (K-562 leukemia) [µM],TGI (K-562 leukemia) [µM],GI50 (HCT-15 colon) [µM],GI50 (NCI-H226 lung) [µM],GI50 (NCI-H522 lung) [µM],GI50 (ACHN renal) [µM],GI50 (SF-268 CNS) [µM],GI50 (RPMI-8226 leukemia) [µM],GI50 (HCT-116 colon) [µM]
COc1ccc2c3c(c(=O)n(C)c2c1OC)C=CC(C)(C)O3,> 100,41.3,> 100,27.9,80.9,> 100,27.5,> 100,29.3,,,,,,,,,,,
O=C(CSC(=S)N1CCOCC1)Nc1nc2c(s1)CCCC2,,> 100,> 100,> 100,> 100,70.2,> 100,> 100,> 100,,,,,,,,,,,
Clc1nc(Cl)c2ncn(Cc3ccc(COc4cccc(OCc5ccc(Cn6cnc7c(Cl)nc(Cl)nc76)cc5)c4)cc3)c2n1,> 100,> 100,,> 100,60.3,> 100,> 100,> 100,> 100,> 100,15.1,25.9,> 100,28.8,21,61.9,45.4,> 100,9.5,
CCOC(=O)C(=O)Nc1c(C)cccc1C,> 100,> 100,> 100,> 100,> 100,,> 100,> 100,> 100,,,,,,,,,,,
CC(=O)OCC1OC(n2ccc(=O)[nH]c2=O)C(OC(C)=O)C1OC(C)=O (centres undefined),> 100,> 100,> 100,> 100,> 100,> 100,> 100,> 100,> 100,> 100,> 100,,,> 100,> 100,> 100,> 100,> 100,> 100,> 100
Clc1nc(Cl)c2c(ncn2C/C=C\Cn2cnc3c(Cl)nc(Cl)nc32)n1,0.906,3.28,,3.2,3.84,2.1,3.33,5.49,3.8,0.351,1.73,0.801,21.1,1.5,1.76,0.697,1.83,1.74,1.58,
COC(=O)c1csc(-c2nc(CCNC(=O)OC(C)(C)C)sc2Br)n1,> 100,,> 100,> 100,> 100,,> 100,> 100,> 100,,,,> 100,,,,,,,
C=C(C)C(=O)O[C@H]1[C@H]2[C@H](OC(=O)[C@H]2C)[C@H](O)[C@@H](C)[C@@H]2C=CC(=O)[C@]21C,4.13,19.9,4.6,6.38,39,2.68,12.7,12.6,9.73,,,,,,,,,,,
CN(C)CCCN1CCc2c([nH]c3ccccc23)C1c1cccnc1 (centres undefined),> 100,> 100,> 100,> 100,> 100,> 100,> 100,,> 100,,,,> 100,,,,,,,
COc1ccc2c(c1)OC(N(C(C)=O)C(C)=O)=C(C#N)C2c1ccc(F)cc1 (centres undefined),9.63,> 100,> 100,> 100,> 100,18.3,> 100,> 100,27.1,1.77,7.93,,,0.683,25.5,0.619,4.18,9.47,3.18,1.26
COc1cc(CNc2ccc(C(C)C)cc2)cc(OC)c1OC,14.1,65.8,23.6,31.2,,24,60.1,> 100,38.2,,,,41.7,,,11.1,,,,
Nc1nc2c(c(=O)[nH]1)CN(c1ccc(S(N)(=O)=O)cc1)CN2,,> 100,> 100,> 100,> 100,> 100,> 100,> 100,> 100,,,,> 100,,,,,,,
O=C(O)c1cc(=O)c2[nH]c3ccccc3c2s1,> 100,> 100,,> 100,,> 100,> 100,> 100,> 100,,,,> 100,,,,,,,
CCc1cc(O)c(Cl)c(C)c1Cl,28.7,28.5,31.5,34.6,,37.6,31.5,> 100,42.3,,,,,,,,,,,
O=C1CC[C@@H](S(=O)(=O)c2ccccc2)[C@@H](/C=C/c2ccccc2)O1,> 100,> 100,> 100,> 100,> 100,> 100,> 100,,> 100,,,,> 100,,,,,,,
CC/C=C\C/C=C\C/C=C\CCCCCCCC(=O)OCC,,> 100,> 100,,> 100,,> 100,> 100,> 100,,,,> 100,,,,,,,
CC(C)NC(=O)OCCS(=O)c1c(Cl)c(Cl)nn1C (centres undefined),,> 100,> 100,43.8,> 100,41.1,> 100,> 100,> 100,,,,> 100,,,,,,,
CCOP(=O)(OCC)C(NC(c1ccccc1)c1ccccc1)c1cccc2ccccc12 (centres undefined),,,,8.78,19,> 100,12.3,21.2,5.57,,,3.99,21,1.51,4.63,7.96,4.1,5.75,2.38,
CC(=O)n1c2ccccc2c2nc3nc(Oc4ccc(C)cc4)c4ccccc4c3cc21,,> 100,> 100,> 100,> 100,> 100,> 100,> 100,> 100,,,,> 100,,,,,,,
CSc1nc2c(nc(N)n2C2OCC(O)C(O)C2O)c(=O)n1C (centres undefined),> 100,> 100,> 100,,> 100,> 100,> 100,> 100,,,,,> 100,,,,,,,

# Reference: PubChem BioAssay (NCI)
